Source: paper PMC4913735, “Non‐glycosidic compounds can stimulate both human and mouse iNKT cells” (European Journal of Immunology, 2016)

Tests used:
B16 melanoma cells = test: B16 melanoma lung metastasis model; format: in vivo, C57BL/6 mice; conditions: 1 and 0.1 ng i.v.; versus ThrCer; comparable protection at 1000‐fold lower dose than ThrCer
Experimental: To this end, mice were injected i.v. with a range of doses of lipids (100, 1, 0.1 ng) and 3 days later, challenged with i.v. injected 5 × 10^5 B16 melanoma cells. Fourteen days later, the metastasis load in the lungs was quantified. […] With a reduction in lipid dose, the extent of tumor metastasis burden increased to varying degrees.
(A) Mice were immunized with 100, 1, or 0.1 ng of lipids i.v. 3 days before receiving an i.v. challenge with 5 × 10^5 B16 melanoma cells (n = 4/group). Two weeks later the lungs were removed and the number of metastatic nodules quantified as described in section “Materials and methods”. Data in the three panels are shown as mean ± SEM of tumor area as percentage of total lung area, and are representative of two independent experiments. (B) Representative lung lobe from each group is shown. Photographic images are representative of four lung lobes in each of two independent experiments.
C57BL/6 mice were challenged i.v. with syngeneic B16F10 melanoma, resuspended in PBS. A total of 5 × 10^5 cells in 200 μL were administered 3 days after administration of indicated doses of iNKT‐cell agonists (100, 1, or 0.1 ng). Two weeks after challenge, mice were killed, lungs removed, imaged and the percentage of lung tumor metastases quantified using Adobe Photoshop®.

[1] = molecular target: murine Vα14/Vβ8 iNKT‐cell TCR (Mus musculus, UniProt P11609+Z9CWY5XBV8); test: SPR binding of soluble murine iNKT‐cell TCR to mCD1d/lipid complexes; conditions: for Kd: SPR equilibrium binding, mCD1d loaded with lipid, read-out: K d, murine iNKT‐cell TCR binding to mCD1d/lipid complex
Text: In order to extend the analysis of the ability of ThrCer analogs to activate iNKT‐cells in vivo, we assessed their ability to promote a response in a murine model. First, we performed binding assays using in vitro‐loaded murine recombinant CD1d (mCD1d) molecules and in vitro‐refolded murine Vα14/Vβ8 iNKT‐cell TCR.
(§1) Soluble human invariant TCR was generated as previously described 34 where both the Vα24 and Vβ11 chains were individually overexpressed in Escherichia coli, purified from the inclusion bodies, then refolded, and purified to generate the TCR heterodimers, according to Boulter et al. 43. The murine TCR was generated according to Pellici et al. as a chimeric molecule (with variable murine regions and human constant regions) 44. The hybrid alpha chains and beta chains were individually expressed in E. coli and purified from the inclusion bodies, then refolded as above.
(§2) SPR experiments were performed with a BIAcore 3000 to measure the affinity and kinetics of iNKT‐cell TCR binding to human CD1d–ligand complexes. In brief, approximately 1000 RU of the biotinylated hCD1d–lipid complexes were immobilized onto streptavidin‐coated CM5 sensor chips (BIAcore). Aliquots of purified TCR with increasing concentrations were passed over immobilized hCD1d–lipid complex at a flow rate of 10 μL/min for the equilibrium‐binding experiments or 50 μL/min for the kinetics experiments. The dissociation constants, K d, were calculated by fitting the data from the equilibrium‐binding experiment to a non‐linear regression saturation binding model (GraphPad Prism 5.0), whereas the k off data were estimated from the kinetics experiments by fitting the data with the built‐in models of the BIAeval3.1 software (BIAcore).

[2] = system: EG7 cells (OVA‐expressing EL4); test: Injection of OVA plus iNKT‐cell agonist in EG7 tumor‐bearing mice; format: in vivo; conditions: 1 μg lipid i.v. with OVA, 4 days after EG7 s.c.; for OVA‐specific CD8+ T cells in blood (tetramer) in tumor‐bearing mice: bled 7 days later
Experimental: To test the functional consequences of iNKT‐cell‐induced DC maturation (Fig. 1E and Supporting Information Fig. 1) and to assess whether iNKT‐cell activation mediated by the injection of either ThrCer 6 or ThrCer 7 could lead to cross‐presentation of peptides derived from soluble antigenic proteins, mice were injected with the tumor cell line EL4 encoding the full‐length OVA and then 4 days later were immunized i.v. with full‐length OVA together with 1 μg of non‐glycosidic iNKT‐cell agonists. As a control, mice were injected with α‐GalCer with full‐length OVA. Seven days later, OVA‐specific CD8^+ T‐cells were detected in the blood by H‐2 K^b/OVA257–264 tetramer staining of CD8^+ T cells.
Figure 4 Injection of ThrCer 6 with OVA into tumor‐bearing mice results in tumor regression. Mice (n = 4–6) were injected s.c. with OVA‐expressing EL4 cells (EG7 cells). Four days later mice were injected i.v. with OVA protein together with either vehicle or 1 μg of the indicated iNKT‐cell agonist. (A) Seven days later mice were bled and the number of H‐2K^b 257‐264 tetramer^+ cells was assessed by FACS analysis. (B) The size of the tumor was subsequently measured regularly using calipers and expressed as surface area. The arrow indicates the timing of the injection of soluble OVA plus iNKT‐cell agonists. (A and B) Data are shown as mean ± SEM and are representative of two independent experiments.
Mice (n = 4–6) were injected subcutaneously (s.c.) with 1 × 10^6 EG7 cells (a derivative of the thymoma EL4, expressing the OVA protein). Four days later mice were injected i.v. with 800 μg OVA together with either vehicle or 1 μg of the indicated iNKT‐cell agonist. Seven days later mice were bled and the number of H‐2K^b 257–264 tetramer^+ cells was assessed by FACS analysis. The size of the tumor was subsequently measured regularly using calipers and expressed as surface area.

human iNKT‐cell TCR = human iNKT‐cell TCR (Homo sapiens, UniProt A0A0B4J240+P15813); test: SPR (BIAcore) binding of soluble human iNKT‐cell TCR to hCD1d/lipid complexes; conditions: for Kd: SPR equilibrium binding, hCD1d refolded with lipid, read-out: K d, human iNKT‐cell TCR binding to hCD1d/lipid complex; for koff: SPR kinetics experiment, read-out: k off, human iNKT‐cell TCR from hCD1d/lipid complex
Experimental: Two analogs of ThrCer, ThrCer 6, and ThrCer 7 were synthesized. […] We first carried out measurements to assess the binding affinity of these ThrCer analogs to human iNKT‐cell TCR (Fig. 1B). Recombinant human CD1d (hCD1d) molecules were refolded in vitro with ThrCer 6 and ThrCer 7 separately and coupled to BIAcore chips, over which refolded human iNKT‐cell TCR was injected at different concentrations 34. […] Importantly, these findings were consistent with data obtained using tetrameric human iNKT‐cell TCRs as a staining reagent to identify lipid/CD1d complexes on the surface of C1R cells that had been transfected with hCD1d cDNA (hCD1d C1R cells) and subsequently loaded with the different lipids 34 (Fig. 1C).
as §1, §2

Sequence of murine Vα14/Vβ8 iNKT‐cell TCR (P11609 whole entry, looked up, other chains not shown): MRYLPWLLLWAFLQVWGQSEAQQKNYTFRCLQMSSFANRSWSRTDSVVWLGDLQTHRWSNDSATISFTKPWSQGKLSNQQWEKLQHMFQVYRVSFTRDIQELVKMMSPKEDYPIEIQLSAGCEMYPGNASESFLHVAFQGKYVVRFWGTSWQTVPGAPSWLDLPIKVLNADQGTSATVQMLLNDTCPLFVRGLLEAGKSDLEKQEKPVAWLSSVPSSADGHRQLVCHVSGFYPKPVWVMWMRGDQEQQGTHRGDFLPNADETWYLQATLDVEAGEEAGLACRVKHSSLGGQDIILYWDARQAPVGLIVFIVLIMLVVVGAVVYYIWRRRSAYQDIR

Row | Koff, murine iNKT‐cell TCR from mCD1d/lipid complex [1] | Kon, murine iNKT‐cell TCR to mCD1d/lipid complex [1] | Kd [1] | Kd (human iNKT‐cell TCR) | koff (human iNKT‐cell TCR) | Structure (SMILES) | Protection against B16 lung metastases at reduced lipid dose (B16 melanoma cells) | Rejection of OVA‐expressing implanted tumors [2] | OVA‐specific CD8+ T cells in blood (tetramer) in tumor‐bearing mice [2]
1 | 0.050 S^-1 | 3.47 x10^4 M^-1 S^-1 | 1440 ± 130 nM | 610 ± 100 nM | 0.165 s⁻¹ | CCCCCCCCCCCCCCCCCCCCCCCCCC(=O)N[C@@H](CO[C@H]1CC[C@H](O)[C@H](O)[C@H]1O)[C@H](O)[C@H](O)CCCCCCCCCCCCCC [ThrCer 6] | far greater protection | rejected | peptide‐specific response
2 | 0.214 S^-1 | 8.39 x10^4 M^-1 S^-1 | 2550 ± 170 nM | 760 ± 80 nM | 0.142 s⁻¹ | CCCCCCCCCCCCCCCCCCCCCCCCCC(=O)NC(COC1CCCC(O)C(O)C1O)C(O)C(O)CCCCCCCCCCCCCC (stereo not drawn) [ThrCer 7] |  |  | peptide‐specific response
3 | 0.059 S^-1 | 3.93 x10^4 M^-1 S^-1 | 1500 ± 160 nM | 1120 ± 130 nM | 0.41 s⁻¹ | CCCCCCCCCCCCCCCCCCCCCCCCCC(=O)N[C@@H](CO[C@H]1O[C@H](CO)[C@H](O)[C@H](O)[C@H]1O)[C@H](O)[C@H](O)CCCCCCCCCCCCCC [α‐GalCer, α‐galactosylceramide, reference compound] | far greater protection |  | peptide‐specific response
